Results as given in patent publication US20250313560A1, “Novel bicyclic benzylamido pyridine derivatives as SOS1 inhibitors” (Boehringer Ingelheim International GmbH, priority 2024, published 2025).
Where two headings read alike, the source gives them in different places.

Legend:
SOS1 and KRAS G12C = SOS1 and KRAS G12C (Homo sapiens (Human), UniProt Q07889); assay: KRAS::SOS1 AlphaScreen binding assay (KRAS G12C); settings: average of at least two measurements
SOS1 and KRAS G12D = SOS1 and KRAS G12D (Homo sapiens (Human), UniProt Q07889); assay: KRAS::SOS1 AlphaScreen binding assay (KRAS G12D); settings: average of at least two measurements
Sequence of SOS1 and KRAS G12D (Q07889 564-1049, stated change not applied): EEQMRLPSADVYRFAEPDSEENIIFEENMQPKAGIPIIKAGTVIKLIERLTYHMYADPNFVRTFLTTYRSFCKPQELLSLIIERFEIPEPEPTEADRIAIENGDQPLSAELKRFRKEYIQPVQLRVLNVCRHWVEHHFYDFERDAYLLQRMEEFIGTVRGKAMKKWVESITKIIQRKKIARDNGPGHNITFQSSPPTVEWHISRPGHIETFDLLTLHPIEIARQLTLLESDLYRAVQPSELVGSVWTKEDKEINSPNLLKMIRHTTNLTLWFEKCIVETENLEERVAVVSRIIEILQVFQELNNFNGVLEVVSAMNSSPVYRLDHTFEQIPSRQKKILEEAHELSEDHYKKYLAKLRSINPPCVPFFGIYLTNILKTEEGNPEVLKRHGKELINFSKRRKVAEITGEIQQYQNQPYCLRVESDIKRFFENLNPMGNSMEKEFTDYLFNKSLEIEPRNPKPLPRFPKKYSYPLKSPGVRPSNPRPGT

[1] = tested on: ERK phosphorylation in NCI-H358 SOS2 KO cells (KRAS G12C); assay: Erk phosphorylation assay; type: cell-based, human; settings: EGF stimulated, average of at least two measurements, read-out: pERK IC50
Procedure, shortened: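 NCI-H358 SOS2 KO cells (KRAS G12C) in DMEM/2% FBS were pretreated 50 min with compound, then stimulated with EGF (approx. 8 ng/mL) for 10-15 min. pERK1/2 (Thr202/Tyr204) measured in lysates by AlphaLISA SureFire; IC50 from variable-slope fit, averaged over at least two measurements.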

P450 3A4 = P450 3A4 (Homo sapiens (Human), UniProt P08684); assay: Cytochrome P450 isoenzyme inhibition assay (P450 3A4, midazolam); type: in vitro ADME; settings: human liver microsomes, Midazolam as substrate; read-out: CYP3A4 inhibition IC50
Sequence of P450 3A4 (P08684 whole entry): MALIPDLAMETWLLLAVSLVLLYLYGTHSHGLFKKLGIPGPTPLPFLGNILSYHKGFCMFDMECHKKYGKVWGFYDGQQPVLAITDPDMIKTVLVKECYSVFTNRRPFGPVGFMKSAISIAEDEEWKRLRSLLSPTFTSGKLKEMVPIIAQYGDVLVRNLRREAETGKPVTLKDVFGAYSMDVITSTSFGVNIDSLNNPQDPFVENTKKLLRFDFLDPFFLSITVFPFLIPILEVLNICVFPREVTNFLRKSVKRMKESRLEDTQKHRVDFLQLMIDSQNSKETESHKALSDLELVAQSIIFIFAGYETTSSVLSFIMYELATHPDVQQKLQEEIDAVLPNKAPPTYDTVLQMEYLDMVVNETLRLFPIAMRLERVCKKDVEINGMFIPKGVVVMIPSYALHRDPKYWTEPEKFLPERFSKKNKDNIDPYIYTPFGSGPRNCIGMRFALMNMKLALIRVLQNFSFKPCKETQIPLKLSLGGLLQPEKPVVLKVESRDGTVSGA
Procedure, shortened: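 Midazolam (5 μM) hydroxylation by human liver microsomes (0.1 mg/ml) in 0.1 M TRIS with 5 mM MgCl2, started with 1 mM NADPH. Five compound concentrations in duplicate, e.g. top 50 μM with 1:4 dilutions. Metabolite quantified by LC-MS/MS against internal standard; IC50 from inhibition relative to no-compound control.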

CYP3A4 = CYP3A4 (Homo sapiens (Human), UniProt P08684); assay: Mechanism-based inhibition of CYP3A4 assay (MBI 3A4); type: in vitro ADME; settings: human liver microsomes, midazolam substrate, hydroxy-midazolam formation after 30 min preincubation relative to 0 min; for inhibition at 30 min: human, probe midazolam 15 μM (hydroxy-midazolam formation), read-out: MBI inhibition % ctrl. [%] with MDZ
Sequence of CYP3A4 (P08684 whole entry): as above
Procedure, shortened: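 Human liver microsomes (0.2 mg/mL) were preincubated with compound at 0, 5 or 25 μM plus 1 mM NADPH for 0, 10 or 30 min, then diluted 1:10 and incubated 10 min with 15 μM midazolam. Hydroxy-midazolam was measured by LC/MS-MS; readout is formation after 30 min relative to 0 min preincubation (%).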

human hepatocytes = assay: Metabolic stability in human hepatocytes; settings: 1 μM test compound, 50% human serum, percentage of liver blood flow
Protocol: The metabolic degradation of a test compound is performed with hepatocytes in suspension. After recovery from cryopreservation, human hepatocytes are diluted in Dulbecco's modified eagle medium (supplemented with 3.5 μg glucagon/500 mL, 2.5 mg insulin/500 mL, 3.75 mg hydrocortisone/500 mL, 50% human serum) to obtain a final cell density of 1.0×10^6 cells/mL. Following a preincubation in a cell culture incubator (37° C., 10% CO2), test compound dissolved in DMSO is mixed with the hepatocyte suspension, resulting in a final test compound concentration of 1 μM and a final DMSO concentration of 0.05%.
The cell suspension is incubated at 37° C. (cell culture incubator, horizontal shaker) and samples are removed from the incubation after 0, 0.5, 1, 2, 4 and 6 hours. Samples are quenched with acetonitrile (containing internal standard) and pelleted by centrifugation. The supernatant is transferred to a deep-well plate and prepared for analysis of decline of parent compound by HPLC-MS/MS.
The percentage of remaining test compound is calculated using the peak area ratio (test compound/internal standard) of each incubation time point relative to the time point 0 peak area ratio. The log-transformed data are plotted versus incubation time, and the absolute value of the slope obtained by linear regression analysis is used to estimate in vitro half-life (T1/2).
CL_[sequence]_IN VIVO[mL/min/kg]=(CL_[sequence][μL/min/10^6cells]×hepatocellularity[10^6cells/g liver]×liver factor[g/kg body weight])/1000
Hepatic in vivo blood clearance (CL) is predicted according to the well-stirred liver model considering an average liver blood flow (QH) of 20.7 mL/min/kg:
CL[mL/min/kg]=CL_[sequence]_IN VIVO[mL/min/kg]×hepatic blood flow[mL/min/kg]/(CL_[sequence]_IN VIVO[mL/min/kg]+hepatic blood flow[mL/min/kg])
Results are expressed as percentage of hepatic blood flow:
QH[%]=CL[mL/min/kg]/hepatic blood flow[mL/min/kg])

[2] = Homo sapiens, NCI-H358, NCI-H358 SOS2 KO cells

Sequence of SOS1 and KRAS G12C (Q07889 564-1049, stated change not applied): as the sequence (Q07889 564-1049, stated change not applied) above

Question: `C[C@@H](NC(=O)c1cc(N2CCC3(CCNC3)CC2)c2ncnn2c1)c1cccc(C(F)(F)F)c1F` [Example E36] was tested. Which IC50 (SOS1 and KRAS G12C) did it give?
Answer: The IC50 was 28 nM.

Question: And the IC50 (SOS1 and KRAS G12D)?
Answer: Its IC50 is 22 nM.

Question: What about the IC50 [1, 2] of the same compound?
Answer: Its IC50 is 144 nM.

Question: What about the IC50 (P450 3A4) of the same compound?
Answer: The IC50 was > 50000 nM.

Question: And the inhibition at 30 min (CYP3A4)?
Answer: The inhibition at 30 min was 96%.

Question: What about the “Hepatic clearance - QH[%] in human hepatocytes” value (from here on “Hepatic clearance - QH[%]”) (human hepatocytes) of the same compound?
Answer: The value was 10%.

Question: How did the IC50 (SOS1 and KRAS G12C) turn out when `C[C@@H](NC(=O)c1cc(N2CCC(N3C[C@@H](O)C4(CC4)C3)CC2)c2ncnn2c1)c1cccc(C(F)(F)F)c1F` [Example E30] was run?
Answer: The IC50 was 59 nM.

Question: And the IC50 (SOS1 and KRAS G12D)?
Answer: The IC50 was 51 nM.

Question: And the IC50 [1, 2]?
Answer: The IC50 was 296 nM.

Question: What about the IC50 (P450 3A4) of the same compound?
Answer: Its IC50 is > 50000 nM.

Question: What about the inhibition at 30 min (CYP3A4) of the same compound?
Answer: Its inhibition at 30 min is 103%.

Question: What about the “Hepatic clearance - QH[%]” value (human hepatocytes) of the same compound?
Answer: The value was 18%.

Question: How did the IC50 (SOS1 and KRAS G12C) turn out when `C[C@@H](NC(=O)c1cc(N2CCC(N3C[C@H](O)C4(CC4)C3)CC2)c2ncnn2c1)c1cccc(C(F)F)c1F` [Example E3] was run?
Answer: The IC50 was 59 nM.

Question: What about the IC50 (SOS1 and KRAS G12D) of the same compound?
Answer: Its IC50 is 50 nM.

Question: And the IC50 [1, 2]?
Answer: The IC50 was 155 nM.

Question: And the IC50 (P450 3A4)?
Answer: Its IC50 is > 50000 nM.

Question: What about the inhibition at 30 min (CYP3A4) of the same compound?
Answer: The inhibition at 30 min was 94%.

Question: And the “Hepatic clearance - QH[%]” value (human hepatocytes)?
Answer: The value was 24%.

Question: What does the source list for `C[C@@H](NC(=O)c1cc(N2CCC(NC3COCC3O)CC2)c2ncnn2c1)c1cccc(C(F)(F)F)c1F` (single isomer, unassigned) [Example trans-E42a]?
Answer: IC50 (SOS1 and KRAS G12C): 26 nM; IC50 (SOS1 and KRAS G12D): 26 nM; IC50 ([1]; NCI-H358 SOS2 KO cells): 183 nM; IC50 (P450 3A4): > 50000 nM; MBI inhibition % ctrl. [%] with MDZ (CYP3A4): 101%; Hepatic clearance - QH[%] in human hepatocytes (human hepatocytes): 18%

Question: With `C[C@@H]1[C@H](O)CN1C1CCN(c2cc(C(=O)N[C@H](C)c3cccc(C(F)(F)F)c3F)cn3ncnc23)CC1` [Example E25] as the compound, how does the IC50 (SOS1 and KRAS G12C) read?
Answer: Its IC50 is 63 nM.

Question: And the IC50 (SOS1 and KRAS G12D)?
Answer: The IC50 was 53 nM.

Question: What about the IC50 [1, 2] of the same compound?
Answer: Its IC50 is 282 nM.

Question: And the IC50 (P450 3A4)?
Answer: Its IC50 is > 50000 nM.

Question: And the inhibition at 30 min (CYP3A4)?
Answer: The inhibition at 30 min was 91%.

Question: And the “Hepatic clearance - QH[%]” value (human hepatocytes)?
Answer: The value was 17%.

Question: Which results are given for `C[C@@H](NC(=O)c1cc(N2CCC(N3CC[C@@H](O)C3)CC2)c2ncnn2c1)c1cccc(C(F)F)c1F` [Example E2]?
Answer: IC50 (SOS1 and KRAS G12C): 55 nM; IC50 (SOS1 and KRAS G12D): 46 nM; IC50 [1, 2]: 92 nM; IC50 (P450 3A4): > 50000 nM; inhibition at 30 min (CYP3A4): 95%; Hepatic clearance - QH[%] in human hepatocytes (human hepatocytes): 15%

Question: For `Cc1nc2c(N3CCC4(CCCN4)CC3)cc(C(=O)N[C@H](C)c3cccc(C(F)(F)F)c3F)cn2n1` [Example E78], which IC50 (SOS1 and KRAS G12C) is on record?
Answer: Its IC50 is 43 nM.

Question: And the IC50 (SOS1 and KRAS G12D)?
Answer: The IC50 was 41 nM.

Question: What about the IC50 [1, 2] of the same compound?
Answer: The IC50 was 223 nM.

Question: What about the IC50 (P450 3A4) of the same compound?
Answer: The IC50 was > 50000 nM.

Question: What about the inhibition at 30 min (CYP3A4) of the same compound?
Answer: The inhibition at 30 min was 103%.

Question: What about the “Hepatic clearance - QH[%]” value (human hepatocytes) of the same compound?
Answer: The value was 5%.

Question: How did the IC50 (SOS1 and KRAS G12C) turn out when `C[C@@H](NC(=O)c1cc([C@]2(O)CC[C@@H](N3CC[C@H](F)C3)CC2)c2ncnn2c1)c1cccc(C(F)F)c1F` [Example E66] was run?
Answer: The IC50 was 74 nM.

Question: What about the IC50 (SOS1 and KRAS G12D) of the same compound?
Answer: Its IC50 is 79 nM.

Question: And the IC50 [1, 2]?
Answer: The IC50 was 152 nM.

Question: And the IC50 (P450 3A4)?
Answer: Its IC50 is > 50000 nM.

Question: And the inhibition at 30 min (CYP3A4)?
Answer: The inhibition at 30 min was 81%.

Question: What about the “Hepatic clearance - QH[%]” value (human hepatocytes) of the same compound?
Answer: The value was 32%.

Question: Which IC50 (SOS1 and KRAS G12C) does the source give for `CO[C@@H]1CCN(C2CCN(c3cc(C(=O)N[C@H](C)c4cccc(C(F)(F)F)c4F)cn4cnnc34)CC2)C1` [Example E75] here?
Answer: The IC50 was 65 nM.

Question: What about the IC50 (SOS1 and KRAS G12D) of the same compound?
Answer: The IC50 was 60 nM.

Question: What about the IC50 [1, 2] of the same compound?
Answer: The IC50 was 408 nM.

Question: And the IC50 (P450 3A4)?
Answer: The IC50 was > 50000 nM.

Question: And the inhibition at 30 min (CYP3A4)?
Answer: The inhibition at 30 min was 99%.

Question: What about the “Hepatic clearance - QH[%]” value (human hepatocytes) of the same compound?
Answer: Its value is 9%.

Question: For `C[C@@H](NC(=O)c1cc(N2CCC(N3CC[C@H](CO)C3)CC2)c2ncnn2c1)c1cccc(C(F)(F)F)c1F` [Example E26], which IC50 (SOS1 and KRAS G12C) is on record?
Answer: The IC50 was 86 nM.

Question: What about the IC50 (SOS1 and KRAS G12D) of the same compound?
Answer: Its IC50 is 78 nM.

Question: And the IC50 [1, 2]?
Answer: The IC50 was 147 nM.

Question: What about the IC50 (P450 3A4) of the same compound?
Answer: The IC50 was > 50000 nM.

Question: What about the inhibition at 30 min (CYP3A4) of the same compound?
Answer: The inhibition at 30 min was 92%.

Question: And the “Hepatic clearance - QH[%]” value (human hepatocytes)?
Answer: Its value is 8%.

Question: How did the IC50 (SOS1 and KRAS G12C) turn out when `C[C@@H](NC(=O)c1cc(N2CCC3(CCCN3C)CC2)c2ncnn2c1)c1cccc(C(C)(F)F)c1F` [Example E74] was run?
Answer: Its IC50 is 26 nM.

Question: What about the IC50 (SOS1 and KRAS G12D) of the same compound?
Answer: The IC50 was 21 nM.

Question: What about the IC50 [1, 2] of the same compound?
Answer: The IC50 was 206 nM.

Question: And the IC50 (P450 3A4)?
Answer: Its IC50 is > 50000 nM.

Question: What about the inhibition at 30 min (CYP3A4) of the same compound?
Answer: The inhibition at 30 min was 89%.

Question: And the “Hepatic clearance - QH[%]” value (human hepatocytes)?
Answer: The value was 8%.

Question: For `C[C@@H](NC(=O)c1cc(N2CCC(N3CCC[C@H]3CO)CC2)c2ncnn2c1)c1cccc(C(C)(F)F)c1F` [Example E72], which IC50 (SOS1 and KRAS G12C) is on record?
Answer: Its IC50 is 33 nM.

Question: What about the IC50 (SOS1 and KRAS G12D) of the same compound?
Answer: Its IC50 is 32 nM.

Question: And the IC50 [1, 2]?
Answer: The IC50 was 92 nM.

Question: What about the IC50 (P450 3A4) of the same compound?
Answer: Its IC50 is > 50000 nM.

Question: What about the inhibition at 30 min (CYP3A4) of the same compound?
Answer: Its inhibition at 30 min is 98%.

Question: What about the “Hepatic clearance - QH[%]” value (human hepatocytes) of the same compound?
Answer: Its value is 21%.

Question: Which IC50 (SOS1 and KRAS G12C) does the source give for `C[C@@H](NC(=O)c1cc(C2=CCC(N3CCC[C@H](O)C3)CC2)c2nncn2c1)c1cccc(C(F)F)c1F` (stereo partly drawn) [Example E82] here?
Answer: Its IC50 is 20 nM.

Question: What about the IC50 (SOS1 and KRAS G12D) of the same compound?
Answer: The IC50 was 15 nM.

Question: What about the IC50 [1, 2] of the same compound?
Answer: The IC50 was 90 nM.

Question: And the IC50 (P450 3A4)?
Answer: The IC50 was > 50000 nM.

Question: And the inhibition at 30 min (CYP3A4)?
Answer: Its inhibition at 30 min is 92%.

Question: And the “Hepatic clearance - QH[%]” value (human hepatocytes)?
Answer: The value was 5%.

Question: Which results are given for `C[C@@H](NC(=O)c1cc(N2CCC3(CCCN3C)CC2)n2ncnc2c1)c1cccc(C(F)(F)F)c1F` [Example E86]?
Answer: IC50 (SOS1 and KRAS G12C): 61 nM; IC50 (SOS1 and KRAS G12D): 44 nM; IC50 [1, 2]: 174 nM; IC50 (P450 3A4): > 50000 nM; inhibition at 30 min (CYP3A4): 96%; Hepatic clearance - QH[%] in human hepatocytes (human hepatocytes): 15%
